The values that follow come from patent US20020107209A1, “Triterpene saponins from soybeans for treating kidney disease” (priority 2000, published 2002).

Data set [1] concerns rodent models of polycystic kidney disease (PKD). The experiment in a line: Casein-based diet supplemented with crude saponin-enriched alcohol extract (SEAE), ginseng, genistein or L-arginine; earlier experiment. Format: in vivo, mice. The settings on record: supplementation of the casein-based diet. The text has this:
These beneficial effects appeared unique to the saponins derived from soybeans as supplementation of the casein-based diet with (1) ginseng (also a saponin), (2) genistein, (an isoflavone naturally present in SPI) or (3) addition of the amino acid L-arginine to the casein to mimic the amino acid composition to that of the SPI had no effect on disease progression.
The major component of the SEAE was identified as soyasaponin Bb with smaller amounts of two or three unidentified saponins and trace amounts of genistein and daidzen, two naturally occurring isoflavones in soy protein. The inventors determined that the Group B soybean-derived saponins (soyasaponins), especially soyasaponin Bb, was an important contributor to the attenuation of cyst growth.

The test system of another data set is pcy mouse model of PKD. The experiment in a line: 90-day feeding trial in pcy mice: casein-based diet supplemented with Novasoy 400 or soyasaponin Bb concentrate. It is filed as in vivo. The settings on record: for effect on attenuation of kidney size and cyst development: pcy mouse model of PKD, summary in words. How it is done: Experiments were conducted with a purified soyasaponin Bb concentrate for a feeding trial in the pcy mice.
The feeding trial, which followed the acquisition of this soyasaponin Bb concentrate, explored the possibility that this concentrate was an important contributor to the attenuation of disease progression in the pcy mouse. The protocol used in this trial involved the random assignment of young, male pcy mice to one of three dietary treatments and feeding these diets for 90 days, the usual time frame in these studies. The diets used in this feeding trial were:1) an unsupplemented casein-based diet, known to increase the severity of the renal cystic disease; 2) this casein-based diet supplemented with Novasoy 400®, a new, isoflavone-enhanced product containing low levels of the soyasaponins (ADM, Decatur, Ill.) or 3) the casein-based diet supplemented with the purified soyasaponin Bb concentrate prepared by Drs. Collins and Sarr.
After three months the mice were humanely euthanized and the kidney and liver tissues removed and stored at −80 degrees Celsius until measurements of tissue water content and cell volume could be taken. Organ water content was determined in the kidney and liver by measuring the difference between the wet weight of the tissue and its subsequent weight after freeze-drying. Plasma, obtained by centrifugation of the cardiac blood, was used for standard measurements of renal function, including total protein, urea, and creatinine concentrations. Soy protein fractions enriched in the soyasaponins are reportedly hypocholesterolemic when fed to hamsters (Gatchalian-Yee M. et al. Nutrition. 13:633-639,1997) and plasma cholesterol levels were also measured in the present experiment whenever the sample volume was adequate. Differences between treatment effects were assessed by a one-way ANOVA and the significance of these differences between means obtained by the Tukey's Honestly Significant Different Test.

[2] abbreviates: pcy mice, 90 days, plasma from cardiac blood, mean ± SEM.
[3] abbreviates: pcy mice, 90 days, versus casein.
The mark [4] stands for this setting: pcy mice, 90 days, versus unsupplemented casein diet.
Setting [5] is: pcy mice, diet fed 90 days, mean ± SEM.
[6] abbreviates: pcy mice, diet fed 90 days, mean ± SEM, 8 animals/group.

Regarding `O=c1c(-c2ccc(O)cc2)coc2cc(O)cc(O)c12` [genistein], in data set [1], the “effect on disease progression” value was “no effect”.

`C[C@@H]1O[C@@H](O[C@H]2[C@H](O[C@H]3[C@H](O[C@H]4CC[C@@]5(C)[C@@H](CC[C@]6(C)[C@@H]5CC=C5[C@@H]7CC(C)(C)C[C@@H](O)[C@]7(C)CC[C@]56C)[C@@]4(C)CO)O[C@H](C(=O)O)[C@@H](O)[C@@H]3O)O[C@H](CO)[C@H](O)[C@@H]2O)[C@H](O)[C@H](O)[C@H]1O` [soyasaponin Bb, 3-O-(α-L-rhamnosyl-1→2-β-D-galactosyl-1→2-β-D-glucuronosyl)-soyasapogenol B] returned a daily food intake with pcy mouse model of PKD (pcy mice, 90-day feeding trial) of 3.3 ± 0.0 g/day. In the data set with pcy mouse model of PKD (setting [2]), this compound returned a Plasma cholesterol of 4.8 ± 0.3 mM/L, a Plasma creatinine of 17.5 ± 1.9 µM, a Plasma total protein of 54.3 ± 1.1 g/L and a Plasma urea of 19.5 ± 3.0 mM/L. Moreover, in the data set on pcy mouse model of PKD (setting [3]), the “absolute and relative kidney weight and kidney water content” value is recorded as “marked reduction”; the “relative liver weight” value was “not observed”. In the data set on pcy mouse model of PKD (setting [4]), the “plasma cholesterol levels” value is given as “lesser hypocholesterolemic effect” and the “plasma creatinine levels” value is reported as “markedly reduced”. For the same compound, in the data set with pcy mouse model of PKD (pcy mice, 90 days, wet weight minus freeze-dried weight, mean ± SEM), the “Kidney water content (g/left kidney)” value is reported as 0.61 ± 0.1 g/left kidney. In the data set with pcy mouse model of PKD (setting [5]), the Final body wt amounted to 25.1 ± 0.1 g, the Liver water content is reported as 0.82 ± 0.0 g, the Liver wt amounted to 1.2 ± 0.2 g and the “Liver wt (g/100 g body wt)” value came out at 4.6 ± 0.1 g/100 g body wt. In addition, in the data set on pcy mouse model of PKD (setting [6]), the Total kidney wt worked out at 1.3 ± 0.1 g and the “Total kidney wt (g/100 g body wt)” value is reported as 5.2 ± 0.3 g/100 g body wt. In addition, the “effect on attenuation of kidney size and cyst development” value with pcy mouse model of PKD is given as “important beneficial effect”. Further, in the data set with pcy mouse model of PKD (listed as soyasaponin Bb concentrate), the “effect on attenuation of kidney size and cyst development” value is “marked beneficial effect”.

As to `N=C(N)NCCC[C@H](N)C(=O)O` [L-arginine], in data set [1], the “effect on disease progression” value is given as “no effect”.
